# Patent US20250302816A1, “DISRUPTION OF EPITHELIAL BARRIERS FOR MOLECULAR DELIVERY ENHANCEMENT OR EXTRACTION OF EXTRACELLULAR FLUIDS” (The University of Nottingham, priority 2022, published 2025)
# How the values were obtained:
# Calu-3 cell layers = experiment: FD4 permeability and TEER of polarised Calu-3 cell layers; type: cell-based, human
# Calu-3 cell layer = experiment: Delivery of siRNA across Calu-3 cell layer (Transwell); type: cell-based, human; settings: 200 μM
# Procedure: FIG. 10: Delivery of siRNA (19 bases) across Calu-3 cell layer is enhanced in the presence of 30C12 HSL (200 μM) assessed as recovered fraction from the basolateral chamber of a Transwell.
smiles,measurement,setting,value
"CCCCCCCCCC(=O)CC(=O)N[C@H]1CCOC1=O [Agent 3OC12-HSL, N-(3-oxododecanoyl) homoserine lactone]",paracellular passage / flux of FD4 from apical to basolateral chamber,Calu-3 cell layers; 200 μM (3OC12-HSL: 200 μM or 1 μM),increased paracellular passage of FD4
same,effect on TEER compared to vehicle only,"Calu-3 cell layers; 200 μM or 1 μM in 0.15% DMSO in HBSS, p<0.001",reduced TEER significantly
same,time after which TEER started increasing / cell layer integrity began to recover,Calu-3 cell layers; during exposure,4 h
same,TEER after 7 hours,Calu-3 cell layers; recovery during exposure,520+/−20 Ω·cm^2
same,time at which flux of FD4 peaked,Calu-3 cell layers; then continued increasing slowly for four hours,30 min
same,"delivery of siRNA (19 bases) across cell layer, recovered fraction from basolateral chamber",Calu-3 cell layer,enhanced
